In publication PMC12015759, “A humanized Gs-coupled DREADD for circuit and behavior modulation” (Frontiers in Cellular Neuroscience, 2025):

Assays:
hM3Ds-M6 (K407R) = hM3Ds-M6 (K407R) (Homo sapiens, UniProt P20309, A178S/A239G/A490L/DEL258-409/DEL413-482/I254V/INS485[…]/K179L/K183A/K256R/K487Q/K567R/L174F/L483Q/R172S/R177Q/R180L/T175R/T182R/Y149C/Y255F); details: CNO at 10 μM, compared to hM3Ds
Experimental: (§1) As for the cAMP assay, HEK293T cells (ATCC) were seeded in 6-well plate with DMEM containing 10% fetal bovine serum. Upon reaching ~80% confluency, cells were transfected with DREADDs plasmids (30 ng), pCRE-Luc (GeneBank accession: AF053461.1, 600 ng) and pRL-SV40 (GeneBank accession: AF025845.2, 150 ng). The following day, cells were redistributed from 6-well plates to white opaque 96-well plates pre-coated with poly-L-lysine (Solarbio).
(§2) The plates were then placed back in the cell incubator for 6 h. The cAMP level was detected using a Dual Glo Luciferase Reporter Gene Assay Kit (YEASEN) following the manufacturer’s protocol. The data of each well was presented as the ratio of firefly luciferase luminescence to renilla luciferase luminescence.

hM3Ds-M4 (K405R) = hM3Ds-M4 (K405R) (Homo sapiens, UniProt P20309, A178S/A239G/A490L/DEL258-409/DEL413-482/I254V/INS485[…]/K179L/K183A/K256R/K487Q/K565R/L174F/L483Q/R172S/R177Q/R180L/T175R/T182R/Y149C/Y255F); details: CNO at 10 μM, compared to hM3Ds
Experimental: as §1, §2

hM3Ds-M5 (K406R) = hM3Ds-M5 (K406R) (Homo sapiens, UniProt P20309, A178S/A239G/A490L/DEL258-409/DEL413-482/I254V/INS485[…]/K179L/K183A/K256R/K487Q/K566R/L174F/L483Q/R172S/R177Q/R180L/T175R/T182R/Y149C/Y255F); details: CNO at 10 μM, compared to hM3Ds
Experimental: as §1, §2

hM3Ds-M3 (D404G) = hM3Ds-M3 (D404G) (Homo sapiens, UniProt P20309, A178S/A239G/A490L/D564G/DEL258-409/DEL413-482/I254V/INS485[…]/K179L/K183A/K256R/K487Q/L174F/L483Q/R172S/R177Q/R180L/T175R/T182R/Y149C/Y255F); details: CNO at 10 μM, compared to hM3Ds
Experimental: as §1, §2

hM3Ds-M2 (Q402R) = hM3Ds-M2 (Q402R) (Homo sapiens, UniProt P20309, A178S/A239G/A490L/DEL258-409/DEL413-482/I254V/INS485[…]/K179L/K183A/K256R/K487Q/L174F/L483Q/Q562R/R172S/R177Q/R180L/T175R/T182R/Y149C/Y255F); details: CNO at 10 μM, compared to hM3Ds
Experimental: as §1, §2

PD mice [1] = test: Rotarod test in 6-OHDA PD mice with bilateral AAV8R12-G88P7-hM3Ds-2A-EYFP; assay type: in vivo, mouse; details: CNO treatment
Experimental: (§3) Animals were anesthetized via intraperitoneal injection of pentobarbital sodium (Sigma) and placed into a stereotactic frame (RWD Instruments). An incision was made to expose the skull and locate the site above the SNr (from bregma: AP –3.4 mm, ML 1.3 mm, DV –4.8 mm). A hole in the skull was drilled above the SNr using an electrodrill (RWD Instruments). The AAV8R12-G88P7-hM3Ds-2A-EYFP vector (200 nL volume) was injected using a 10 μL 33-Gauge Hamilton syringe at a rate of 20 nL/min. The syringe was withdrawn 10 min after finishing injection. Behavioral experiments are performed at least 3 weeks after virus injection.
(§4) A PD mouse model was generated using 6-OHDA. Desipramine (Sigma) was administrated (25 mg/kg) via intraperitoneal injection 30 min before a 6-OHDA injection. The stereotactic injection procedure was identical to the AAV injection described above. A volume of 800 nL 6-OHDA (5 mg/mL) was injected into each side of striatum (from bregma: AP 0.5 mm, ML ±1.5 mm, DV –3.2 mm) at a rate of 100 nL/min. One week after 6-OHDA lesions were generated, AAV injections were administered, and behavioral tests were conducted 3 weeks after AAV injections.
After 3 days of habituation to the environment and operator, the mice were placed on a suspended rod apparatus (Xinruan) and trained at speeds of 10, 20, 30 and 40 rpm/min for 2 days. […]

mice = test: Open field test after unilateral AAV8R12-G88P7-hM3Ds-2A-EYFP injection into the SNr; assay type: in vivo, mouse; details: CNO 0.3 mg/kg intraperitoneal vs saline, unilateral hM3Ds in D1-MSNs
Experimental: as §3
Mice were tested in an open field box arena with length, width and height of 50 × 50 × 50 cm. The animals underwent 3 days of habituation to the environment and experimenter and 1 day of habituation to the test apparatus. On the test day, the animals were injected with saline or CNO (0.3 mg/kg). The animals were placed into the test box 30 min after injection and video was recorded for 10 min. The number of rotations, distance traveled, and time spent immobile were then quantified using Anymaze software and the video recordings.

hM3Ds [2] = target: T1, hM3Ds (Homo sapiens, UniProt P20309, A178S/A239G/A490L/DEL258-409/DEL413-482/I254V/INS485[…]/K179L/K183A/K256R/K487Q/L174F/L483Q/R172S/R177Q/R180L/T175R/T182R/Y149C/Y255F); test: Ca2+ imaging (GCaMP6s) in hM3Ds-transfected HEK293T cells; assay type: cell-based; set-up: hM3Ds was subcloned into pAAV-CMV-EYFP to replace EYFP; expressed in transfected cells; host or cells: HEK293T; details: CNO 10 μM, 10 min
T1 sequence (P20309 with tags, fused parts or gaps Y149C/R172S/L174F/T175R/R177Q/A178S/K179L/R180L/T182R/K183A/A239G/I254V/Y255F/K256R/DEL258-409/DEL413-482/L483Q/INS485[…]/K487Q/A490L): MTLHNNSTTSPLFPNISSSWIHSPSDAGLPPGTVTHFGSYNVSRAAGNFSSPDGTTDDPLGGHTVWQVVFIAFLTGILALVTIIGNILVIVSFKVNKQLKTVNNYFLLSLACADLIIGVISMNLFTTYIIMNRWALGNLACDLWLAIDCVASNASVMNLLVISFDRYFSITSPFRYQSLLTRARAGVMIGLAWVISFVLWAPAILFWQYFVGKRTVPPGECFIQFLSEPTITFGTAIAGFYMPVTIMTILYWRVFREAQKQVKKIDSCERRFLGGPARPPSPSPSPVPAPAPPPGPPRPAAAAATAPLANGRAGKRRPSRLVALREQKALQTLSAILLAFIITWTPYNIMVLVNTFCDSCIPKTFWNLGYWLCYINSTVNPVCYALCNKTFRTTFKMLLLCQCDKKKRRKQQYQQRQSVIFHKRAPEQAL
Experimental: As for the Ca^2+ imaging assay, HEK293T cells (ATCC) were seeded in 24-well plate with DMEM containing 10% fetal bovine serum. Upon reaching ~80% confluency, cells were cotransfected with pAAV-CAG-GCaMP6s (0.1 μg), and pAAV-CMV-hM3Ds or pAAV-CMV-hM3Dq (0.1 μg).
48 h after transfection, the medium in each well was replaced with 400 μL CNO (10 μM) solution, or with 400 μL vehicle (medium only). […] Cell fluorescence were imaged under microscopy and quantified using ImageJ.

hM3-ti23-Ds = target: T2, hM3-ti23-Ds (Homo sapiens, UniProt P20309, A178S/A239G/A490L/D442R/DEL262-438/DEL444-462/DEL467-485/E259S/I254V/INS257[…]/K179L/K183A/K256R/K465M/K487H/L174F/L463M/R172S/R177Q/R180M/T175R/T182R/T258A/Y149C)
T2 sequence (P20309 with tags, fused parts or gaps Y149C/R172S/L174F/T175R/R177Q/A178S/K179L/R180M/T182R/K183A/A239G/I254V/K256R/INS257[…]/T258A/E259S/DEL262-438/D442R/DEL444-462/L463M/K465M/DEL467-485/K487H/A490L): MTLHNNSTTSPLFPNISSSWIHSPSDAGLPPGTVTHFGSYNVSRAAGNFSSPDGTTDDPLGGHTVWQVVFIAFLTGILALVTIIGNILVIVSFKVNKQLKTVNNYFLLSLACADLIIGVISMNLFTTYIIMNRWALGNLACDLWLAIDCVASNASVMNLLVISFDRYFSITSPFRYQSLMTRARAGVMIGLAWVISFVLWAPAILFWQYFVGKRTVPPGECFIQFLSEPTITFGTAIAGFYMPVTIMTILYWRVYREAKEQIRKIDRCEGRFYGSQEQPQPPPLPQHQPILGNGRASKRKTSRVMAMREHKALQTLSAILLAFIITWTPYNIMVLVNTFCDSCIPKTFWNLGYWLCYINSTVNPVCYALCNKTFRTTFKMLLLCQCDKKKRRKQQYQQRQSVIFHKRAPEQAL
Experimental: as §1, §2
(§5) We next examined whether the chemogenetic receptor ligand, CNO, could stimulate hM3-ti23-Ds and hM3Ds and induce up-regulation of cAMP level. We co-transfected HEK293T cells with engineered receptors and the reporter vector, pCRE-Luc, which contains a cAMP response element-driven firefly luciferase (Luc) ([Bokar et al., 1988]); pRL-SV40 encoding renilla luciferase was simultaneously transfected as a transfection efficiency control.

hM3Ds [3] = target: T1, hM3Ds
Experimental: as §1, §2, §5

PD mice [4] = test: Open field test in 6-OHDA PD mice with bilateral AAV8R12-G88P7-hM3Ds-2A-EYFP; assay type: in vivo, mouse; details: CNO 0.3 mg/kg
Experimental: as §3
as §4, with “One week after 6-OHDA lesions were generated, AAV injections were administered, and behavioral tests were conducted 3 weeks after AAV injections.” left out
Mice were tested in an open field box arena with length, width and height of 50 × 50 × 50 cm. […] The animals were placed into the test box 30 min after injection and video was recorded for 10 min. The number of rotations, distance traveled, and time spent immobile were then quantified using Anymaze software and the video recordings.

rM3Ds = target: T3, rM3Ds (Rattus norvegicus, UniProt P08483, A177S/A238G/A489L/DEL261-437/DEL441-478/E258S/I253V/I483M/INS256[…]/K178L/K182A/K255R/K484R/K486H/L173F/L482A/M480V/R171S/R176Q/R179M/S481M/T174R/T181R/T257A/Y148C); test: cAMP assay (CRE-luciferase reporter) in HEK293T cells expressing rM3Ds; assay type: cell-based; details: CNO on rM3Ds, HEK293T, 6 h, firefly/renilla luciferase ratio
T3 construct: host or cells: HEK293T
T3 sequence (P08483 with tags, fused parts or gaps Y148C/R171S/L173F/T174R/R176Q/A177S/K178L/R179M/T181R/K182A/A238G/I253V/K255R/INS256[…]/T257A/E258S/DEL261-437/DEL441-478/M480V/S481M/L482A/I483M/K484R/K486H/A489L): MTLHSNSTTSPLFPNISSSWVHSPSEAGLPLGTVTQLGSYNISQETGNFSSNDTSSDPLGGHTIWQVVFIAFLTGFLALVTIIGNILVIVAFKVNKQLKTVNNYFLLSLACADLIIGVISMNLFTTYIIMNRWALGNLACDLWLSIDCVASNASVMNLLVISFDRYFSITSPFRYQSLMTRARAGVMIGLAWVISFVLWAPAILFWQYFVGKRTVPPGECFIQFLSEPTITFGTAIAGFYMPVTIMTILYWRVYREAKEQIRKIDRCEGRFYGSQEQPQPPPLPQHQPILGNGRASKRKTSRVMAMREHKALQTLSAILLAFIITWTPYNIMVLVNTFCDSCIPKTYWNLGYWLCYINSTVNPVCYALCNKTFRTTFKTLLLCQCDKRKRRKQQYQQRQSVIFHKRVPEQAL

hM3Ds-M6 (K407R), sequence (P20309 with tags, fused parts or gaps with the stated changes): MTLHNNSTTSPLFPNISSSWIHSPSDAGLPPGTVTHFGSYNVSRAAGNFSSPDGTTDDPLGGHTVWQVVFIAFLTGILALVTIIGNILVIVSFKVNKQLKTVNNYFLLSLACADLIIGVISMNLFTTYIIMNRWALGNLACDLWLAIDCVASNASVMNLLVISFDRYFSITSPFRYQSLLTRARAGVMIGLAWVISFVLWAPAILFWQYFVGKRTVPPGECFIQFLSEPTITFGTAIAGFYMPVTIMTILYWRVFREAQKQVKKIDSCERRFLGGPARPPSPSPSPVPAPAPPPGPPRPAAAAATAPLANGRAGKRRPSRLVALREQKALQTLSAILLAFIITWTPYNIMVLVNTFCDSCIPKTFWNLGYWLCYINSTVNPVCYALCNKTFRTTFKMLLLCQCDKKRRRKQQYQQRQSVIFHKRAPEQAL
hM3Ds-M3 (D404G), sequence (P20309 with tags, fused parts or gaps with the stated changes): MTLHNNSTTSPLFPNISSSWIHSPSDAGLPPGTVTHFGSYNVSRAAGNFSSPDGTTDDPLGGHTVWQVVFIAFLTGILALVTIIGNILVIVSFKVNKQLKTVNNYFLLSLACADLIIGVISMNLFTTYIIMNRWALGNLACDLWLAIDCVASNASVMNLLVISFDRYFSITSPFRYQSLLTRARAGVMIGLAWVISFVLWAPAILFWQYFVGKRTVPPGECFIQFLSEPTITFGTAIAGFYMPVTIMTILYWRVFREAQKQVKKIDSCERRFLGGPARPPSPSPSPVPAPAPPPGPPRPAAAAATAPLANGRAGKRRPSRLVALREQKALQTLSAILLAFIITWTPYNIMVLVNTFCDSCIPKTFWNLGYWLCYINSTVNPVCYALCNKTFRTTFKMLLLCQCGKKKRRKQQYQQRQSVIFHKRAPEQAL
hM3Ds-M2 (Q402R), sequence (P20309 with tags, fused parts or gaps with the stated changes): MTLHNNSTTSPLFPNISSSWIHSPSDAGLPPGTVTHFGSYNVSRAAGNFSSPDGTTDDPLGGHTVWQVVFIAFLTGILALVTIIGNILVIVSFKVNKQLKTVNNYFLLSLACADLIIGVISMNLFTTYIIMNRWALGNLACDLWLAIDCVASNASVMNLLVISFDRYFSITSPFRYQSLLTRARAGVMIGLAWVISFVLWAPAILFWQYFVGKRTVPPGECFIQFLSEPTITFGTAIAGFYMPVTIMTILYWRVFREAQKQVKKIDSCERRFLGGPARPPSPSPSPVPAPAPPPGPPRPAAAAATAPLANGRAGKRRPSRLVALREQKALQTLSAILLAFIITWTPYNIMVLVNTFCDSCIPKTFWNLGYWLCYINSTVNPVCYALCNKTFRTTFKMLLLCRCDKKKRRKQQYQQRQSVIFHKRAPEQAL
hM3Ds-M5 (K406R), sequence (P20309 with tags, fused parts or gaps with the stated changes): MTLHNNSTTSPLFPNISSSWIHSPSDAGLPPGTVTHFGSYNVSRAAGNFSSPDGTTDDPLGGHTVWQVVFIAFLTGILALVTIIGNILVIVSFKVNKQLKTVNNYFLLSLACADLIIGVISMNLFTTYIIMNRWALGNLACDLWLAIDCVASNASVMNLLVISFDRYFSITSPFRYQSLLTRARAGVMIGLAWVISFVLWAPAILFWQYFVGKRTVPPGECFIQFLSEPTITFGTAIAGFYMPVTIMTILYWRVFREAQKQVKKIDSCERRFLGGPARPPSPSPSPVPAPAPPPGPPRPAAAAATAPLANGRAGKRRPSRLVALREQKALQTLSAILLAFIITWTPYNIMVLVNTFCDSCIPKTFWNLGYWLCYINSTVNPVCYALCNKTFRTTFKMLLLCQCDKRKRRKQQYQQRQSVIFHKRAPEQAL
hM3Ds-M4 (K405R), sequence (P20309 with tags, fused parts or gaps with the stated changes): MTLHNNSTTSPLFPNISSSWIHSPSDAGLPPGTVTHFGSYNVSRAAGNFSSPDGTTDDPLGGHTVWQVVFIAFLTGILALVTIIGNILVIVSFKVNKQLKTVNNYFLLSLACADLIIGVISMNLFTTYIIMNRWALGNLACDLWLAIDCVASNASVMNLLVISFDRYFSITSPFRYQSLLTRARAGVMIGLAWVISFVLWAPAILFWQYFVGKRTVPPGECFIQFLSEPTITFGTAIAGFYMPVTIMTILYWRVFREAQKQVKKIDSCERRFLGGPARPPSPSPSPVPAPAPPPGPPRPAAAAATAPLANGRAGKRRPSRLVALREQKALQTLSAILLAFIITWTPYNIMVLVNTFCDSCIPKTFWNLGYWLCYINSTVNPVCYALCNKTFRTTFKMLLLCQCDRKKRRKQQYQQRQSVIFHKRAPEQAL

## C[N+]1([O-])CCN(C2=Nc3cc(Cl)ccc3Nc3ccccc32)CC1 [CNO, clozapine N-oxide]
hM3Ds-M6 (K407R)
  fold change in luciferase activity: reduced luciferase activity compared to hM3Ds
hM3Ds-M4 (K405R)
  fold change in luciferase activity: reduced luciferase activity compared to hM3Ds
hM3Ds-M5 (K406R)
  fold change in luciferase activity: reduced luciferase activity compared to hM3Ds
hM3Ds-M3 (D404G)
  fold change in luciferase activity: reduced luciferase activity compared to hM3Ds
hM3Ds-M2 (Q402R)
  fold change in luciferase activity: reduced luciferase activity compared to hM3Ds
PD mice [1]
  latency to fall (rotarod): partial recovery of motor skills
mice
  contralateral rotation: more contralateral rotation
  total distance traveled: no difference
hM3Ds [2]
  calcium rise: did not induce detectable levels of calcium rise
hM3-ti23-Ds; CNO at 10 μM, compared to rM3Ds and hM3Ds
  fold change in luciferase activity: lower fold change
hM3-ti23-Ds; HEK293T
  cAMP response: dose-dependently increased the cAMP response
hM3Ds [3]; CNO at 10 μM, hM3Ds, compared to rM3Ds
  fold change in luciferase activity: comparable fold change
hM3Ds [3]; CNO on hM3Ds, HEK293T, 6 h, firefly/renilla luciferase ratio
  EC50: 1.26 ± 0.2 nM
hM3Ds [3]; hM3Ds, HEK293T
  cAMP response: dose-dependently increased the cAMP response
PD mice [4]
  mean distance traveled: reversed
  time spent immobile: reversed
rM3Ds
  EC50: 2.39 ± 0.25 nM
